The values that follow come from ChEMBL document CHEMBL1151546, “A new structural analogue antagonist of peptido-leukotrienes. The discovery of bay x7195” (Bioorg Med Chem Lett, 1993).

The target in experiment [1] is T1, Cysteinyl leukotriene receptor 1 (Cavia porcellus, UniProt Q2NNR5).
T1 sequence (Q2NNR5 whole entry): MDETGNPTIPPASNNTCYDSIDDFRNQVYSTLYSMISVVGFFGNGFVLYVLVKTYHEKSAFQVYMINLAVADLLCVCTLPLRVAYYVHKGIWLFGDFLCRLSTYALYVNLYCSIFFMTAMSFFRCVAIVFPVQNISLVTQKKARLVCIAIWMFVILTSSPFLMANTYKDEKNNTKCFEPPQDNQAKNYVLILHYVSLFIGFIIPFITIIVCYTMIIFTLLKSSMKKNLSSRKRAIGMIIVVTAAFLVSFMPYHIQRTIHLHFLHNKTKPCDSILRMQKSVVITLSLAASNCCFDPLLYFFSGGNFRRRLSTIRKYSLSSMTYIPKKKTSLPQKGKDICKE
Briefly: (§1) Compound was evaluated for its antagonist affinity at 0.1 uM on guinea-pig trachea rings against LTD4 receptor. Format: functional, tissue-based. As to conditions: read-out: pA2 (converted).

Experiment [2] concerns the target T1, Cysteinyl leukotriene receptor 1. As to the kind of experiment: Compound was evaluated for its binding affinity on guinea-pig ileum. Type of experiment: tissue-based.
The species named for experiment [3] is Cavia porcellus. Briefly: Compound was evaluated for its agonist activity on guinea-pig ileum, value expressed as the negative logarithm of the ED50 value. Format: functional.
Experiment [4] deals with T1, Cysteinyl leukotriene receptor 1. As to the kind of experiment: Inhibition of [3H]LTD4 binding to guinea-pig lung membranes. Format: tissue-based, Membrane.
The target of experiment [5] is T2, Cysteinyl leukotriene receptor 1 (Cavia porcellus) (UniProt Q2NNR5).
T2 sequence (whole entry): T1 sequence (Q2NNR5 whole entry)
As to the kind of experiment: Compound was evaluated for its antagonist affinity at 10 (uM) on guinea-pig trachea rings against LTD4 receptor. Type of experiment: functional, tissue-based.

The target in experiment [6] is T3, Cysteinyl leukotriene receptor 1 (Homo sapiens) (UniProt Q9Y271).
T3 sequence (whole entry): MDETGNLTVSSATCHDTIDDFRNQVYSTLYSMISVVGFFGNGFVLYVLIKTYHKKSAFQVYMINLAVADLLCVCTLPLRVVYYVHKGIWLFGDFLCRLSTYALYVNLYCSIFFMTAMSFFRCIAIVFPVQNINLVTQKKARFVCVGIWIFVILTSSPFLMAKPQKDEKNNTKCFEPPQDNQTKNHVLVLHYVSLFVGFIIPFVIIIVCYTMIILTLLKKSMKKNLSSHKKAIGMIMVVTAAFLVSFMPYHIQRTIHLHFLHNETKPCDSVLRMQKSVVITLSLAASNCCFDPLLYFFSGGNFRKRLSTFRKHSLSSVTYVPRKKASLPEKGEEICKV
Briefly: Compound was evaluated for its antagonist affinity against LTD4 on human bronchial muscle. Type of experiment: functional, tissue-based. The conditions noted are these: Muscle tissue.

For experiment [7], the target named is T2, Cysteinyl leukotriene receptor 1 (Cavia porcellus). Described as §1. Type of experiment: functional, tissue-based.
Experiment [8] shares this target. Briefly: Compound was evaluated for its antagonist affinity at 1 uM on guinea-pig trachea rings against LTD4 receptor. Type of experiment: functional, tissue-based.
The species named for experiment [9] is Cavia porcellus. Briefly: spontaneously compound was tested for oral activity against LTD4 in spontaneously-breathing guinea pigs. Type of experiment: functional. The conditions noted are these: read-out: ID50 (the source's name).
For experiment [10], the system named is Cavia porcellus. Briefly: Compound was tested in vivo for antagonistic potency of LTD4 induced contractions of guinea-pig trachea after oral administration. Format: functional. As to conditions: read-out: ID50 (the source's name).

Regarding `O=C(O)CCC(/C=C/Cc1ccc(OCCCCOc2ccccc2)cc1)Sc1ccc(C(=O)O)cc1` (single isomer, unassigned; (+)), the Kb in experiment [1] is 3.98 nM.
Turning to `CCCCC/C=C\C\C=C/C=C/C=C/[C@@H](Sc1cccc(C(=O)O)c1)[C@@H](O)CCCC(=O)O`, the affinity in [2] corresponds to a Ki of 2 nM. The same molecule yielded a pD2 in the experiment filed under Cavia porcellus [3] of 8.2.
On to `O=C(O)CCC[C@H](O)[C@@H](/C=C\CCCCCCCCCOc1ccccc1)Sc1ccc(C(=O)O)cc1`, for which the affinity in [4] corresponds to a Ki of 316 nM.
Regarding `O=C(O)CCC[C@H](O)[C@@H](/C=C\c1cccc(OCCCCOc2ccccc2)c1)Sc1ccc(C(=O)O)cc1`, the pKB (in general, the KB on a negative log10 scale, so that one unit is a factor of ten) in [5] is less than 5.
With `O=C(O)CCC(/C=C/Cc1ccc(OCCCCOc2ccccc2)cc1)Sc1ccc(C(=O)O)cc1` (single isomer, unassigned; (-)), the Kb in experiment [1] is 100 nM.
As to `O=C(O)CCC[C@H](O)[C@@H](/C=C\Cc1cccc(OCCCOc2ccccc2)c1)Sc1ccc(C(=O)O)cc1`, in [5], the pKB was less than 5.
With `CCCCC/C=C\C\C=C/C=C/C=C/[C@@H](Sc1ccccc1C(=O)O)[C@@H](O)CCCC(=O)O`, the Ki (as a rule, the equilibrium dissociation constant of an inhibitor or competing ligand from its target) in [2] was 25.1 nM. The same molecule yielded a pD2 in the experiment filed under Cavia porcellus [3] of 6.9.
Consider `O=C(O)CCCCC(/C=C\Cc1ccc(OCCCCOc2ccccc2)cc1)Sc1ccc(C(=O)O)cc1` (stereo unspecified), for which the values for the pKB in experiment [6] and in experiment [7] were 6.8 and 8.3, respectively.
Regarding `CCCCC/C=C\C\C=C/C=C/C=C/[C@@H](SC[C@H](N)C(=O)NCC(=O)O)[C@@H](O)CCCC(=O)O` [LEUKOTRIENE D4], the pD2 in the experiment filed under Cavia porcellus [3] turned out to be 8.4.
`O=C(O)CCC[C@H](O)[C@@H](/C=C/CCCc1ccccc1)Sc1ccc(C(=O)O)cc1` had a Ki in experiment [4] greater than 100000 nM.
Turning to `O=C(O)CCCC(/C=C\Cc1ccc(OCCCCOc2ccccc2)cc1)Sc1ccc(C(=O)O)cc1` (stereo unspecified), the negative-log KB (pKB) in [8] came out at 7.
Still for that read-out and setting: in the case of `O=C(O)CC(/C=C\Cc1ccc(OCCCCOc2ccccc2)cc1)Sc1ccc(C(=O)O)cc1` (stereo unspecified) it was 6.9.
Regarding `O=C(O)CCC[C@H](O)[C@@H](/C=C\Cc1ccccc1OCCCOc1ccccc1)Sc1ccc(C(=O)O)cc1`, the pKB in experiment [5] was less than 5.
For the molecule `O=C(O)CCC[C@H](O)[C@@H](/C=C\c1ccc(OCCCCOc2ccccc2)cc1)Sc1ccc(C(=O)O)cc1`, the pKB in [5] turned out to be 6.5.
The molecule `O=C(O)CCC[C@H](O)[C@@H](/C=C\CCCCCCCCOc1ccccc1)Sc1ccc(C(=O)O)cc1` showed a Ki in experiment [4] of 631 nM.
The same measure, in the same setting: next, `O=C(O)CCC[C@H](O)[C@@H](/C=C/CCc1ccccc1)Sc1ccc(C(=O)O)cc1`: greater than 100000 nM.
In experiment [5], `O=C(O)CCC[C@H](O)[C@@H](/C=C\c1ccccc1OCCCCOc1ccccc1)Sc1ccc(C(=O)O)cc1` gave a pKB of less than 5.
Still for that read-out and setting: in the case of `O=C(O)CCC[C@H](O)[C@@H](/C=C/c1cccc(OCCCCOc2ccccc2)c1)Sc1ccc(C(=O)O)cc1` it was 6.8.
Turning to `O=C(O)c1ccc(SC(/C=C\Cc2ccc(OCCCCOc3ccccc3)cc2)C(=O)O)cc1` (stereo unspecified), in experiment [8], the pKB was determined as 6.4.
Consider `O=C(O)CCC[C@H](O)[C@@H](/C=C\CCCCCc1ccccc1)Sc1ccc(C(=O)O)cc1`, for which the affinity in experiment [4] corresponds to a Ki of 20000 nM.
Consider `CCCCC/C=C\C\C=C/C=C/C=C/[C@@H](Sc1ccc(C(=O)O)cc1)[C@@H](O)CCCC(=O)O`, for which the Ki in experiment [2] is 100 nM.
For `O=C(O)CCC(/C=C\Cc1ccc(OCCCCOc2ccccc2)cc1)Sc1ccc(C(=O)O)cc1` (stereo unspecified), the ED50 in the experiment listed under Cavia porcellus [9] was determined as 2 mg/kg. Also, the values for the pKB in [6] and in [7] were 8 and 8.4, respectively.
`O=C(O)CCC[C@H](O)[C@@H](/C=C\CCc1ccccc1)Sc1ccc(C(=O)O)cc1` showed a Ki in [4] greater than 100000 nM.
Same read-out and setting: next, `O=C(O)CCC[C@H](O)[C@@H](/C=C\CCCCCCCCCc1ccccc1)Sc1ccc(C(=O)O)cc1`: 251 nM.
On to `O=C(O)CCC[C@H](O)[C@@H](/C=C\Cc1ccc(OCCCCOc2ccccc2)cc1)Sc1ccc(C(=O)O)cc1`, for which the ED50 with Cavia porcellus [10] was roughly 3 mg/kg. The molecule also returned a pKB in experiment [5] of 8.3.
As for `O=C(O)CCC[C@H](O)[C@@H](/C=C\CCCCCCCCc1ccccc1)Sc1ccc(C(=O)O)cc1`, the Ki in experiment [4] was 316 nM.
Still for that read-out and setting: next, `O=C(O)CCC[C@H](O)[C@@H](/C=C\CCCCCCCCCCCCCc1ccccc1)Sc1ccc(C(=O)O)cc1`: 5010 nM.
In experiment [4], `O=C(O)CCC[C@H](O)[C@@H](/C=C\CCCCCCCCCCCc1ccccc1)Sc1ccc(C(=O)O)cc1` had a Ki of 1260 nM. This Ki lies about 4-fold lower than the previous one.
Regarding `CCCCC/C=C\C\C=C/C=C/C=C/[C@@H](SCC(=O)O)[C@@H](O)CCCC(=O)O`, the affinity in [2] corresponds to a Ki of 2 nM. For the same molecule, the pD2 in the experiment listed under Cavia porcellus [3] is reported as 8.5.
